The values that follow come from patent US20100136538A1, “MARKING REAGENTS BEARING DIAZO AND NITRO FUNCTIONS, METHODS FOR THE SYNTHESIS OF SUCH REAGENTS AND METHODS FOR DETECTING BIOLOGICAL MOLECULES” (Biomerieux, priority 2007, published 2010).

Series [1] can be described thus: Accelerated stability in liquid medium (125 mM in 96/4 DMSO/methanol, ambient temperature), HPLC purity. Type of series: physicochemical. The settings on record: 22° C., at 10 days. The protocol: For this purpose, an accelerated stability study is carried out under extreme conditions, in which the compounds are stored at 125 mM in a 96/4 DMSO/methanol mixture at ambient temperature (22° C.+/−1° C.). Note that these are extreme storage conditions.
The three compounds meta nitro DKB, para nitro DKB, and BBP, which are clearly shown in FIG. 10, are dissolved at 125 mM in a 96/4 DMSO/methanol mixture and are stored at ambient temperature (22° C. plus or minus 1° C.). At regular intervals subsequently, 2 μl of these solutions are injected in HPLC (basic method, Waters HPLC system) in order to measure the degradation of the principal product by integrating all of the peaks in the chromatogram (PDA Max Plot in the Empower 2 software).

Series [2] is classed as physicochemical. As to the method:
The three compounds meta nitro DKB, para nitro DKB, and BBP are dissolved at 250 mM in a Tris HCl 10 mM, pH 7.5, and 10% Trehalose solution. The solutions are lyophilized overnight in aliquots of 50 nmol. The dry products are then stored at 4° C. At regular intervals these aliquots are dissolved in methanol and 15 μl of these solutions are injected in HPLC (Waters) in order to measure the degradation of the principal product by integration of all of the peaks in the chromatogram (PDA Max Plot in the Empower software).

Where only a bound is given, the exact number is not on record here.

For the substance [Bio-EG3]2-PDAM [BBP], the “purity of the initial compound (HPLC)” value in series [1] is on record as less than 10%. Besides, the “stability in dry form” value in series [2] is recorded as “does not withstand lyophilization”. The same substance yielded a breakdown during lyophilization in series [2] (Tris HCl 10 mM pH 7.5, 10% Trehalose, lyophilized overnight) greater than 60%.
